Results from US8609610B2, “Inhibitors of the trypsin-like site of the proteasome and methods of use thereof” (Trustees of Dartmouth College, priority 2011, dated 2013).
pIC50: −log10 of the molar value. Where a name gives a salt, the structure may show the parent alone.

Assays:
[1] = biological target: caspase-like site of 26S proteasomes (Oryctolagus cuniculus, UniProt A0A5F9DQW2); assay: Inhibition of purified 26S proteasomes, substrate Ac-nLPnLD-amc; type: biochemical, rabbit; details: >>30 no inhibition at 30 μM, >30 inhibition between 10 and 50% at 30 μM, read-out: IC50 for sites in 26S proteasomes: Casp-L
Chain of caspase-like site of 26S proteasomes (A0A5F9DQW2 1-212): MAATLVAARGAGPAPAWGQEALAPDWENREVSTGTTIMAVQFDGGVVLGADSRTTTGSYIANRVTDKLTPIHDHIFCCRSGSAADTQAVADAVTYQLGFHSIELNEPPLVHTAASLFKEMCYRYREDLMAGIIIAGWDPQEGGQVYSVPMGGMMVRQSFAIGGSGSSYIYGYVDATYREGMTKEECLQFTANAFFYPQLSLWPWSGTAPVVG
Method: (§1) 26S proteasomes were purified from rabbit muscle using known methods (Screen, et al. (2010) supra). […] NOVEX Bis-Tris gels (12%, Invitrogen) with MOPS running buffer were used for electrophoretic separation of catalytic subunits modified by active-site probes. Inhibition of active sites inside cells was assayed using luminescent PROTEASOMEGLO assay (Promega; Moravec, et al. (2009) Anal. Biochem. 387:294-302) according to known methods (Britton, et al. (2009) supra).

[2] = biological target: T1, trypsin-like site of 26S proteasomes (Oryctolagus cuniculus, UniProt G1SWK8); assay: Inhibition of purified 26S proteasomes, substrate Ac-RLR-amc; type: biochemical, rabbit; details: purified 26S proteasomes; >>30 no inhibition at 30 μM, >30 inhibition between 10 and 50% at 30 μM; read-out: IC50 for sites in 26S proteasomes: Tr-L
T1 construct: IC50 for sites in 26S proteasomes: Tr-L; other: purified 26S proteasomes; other: 26S proteasomes from rabbit muscles
T1 sequence (G1SWK8 1-271): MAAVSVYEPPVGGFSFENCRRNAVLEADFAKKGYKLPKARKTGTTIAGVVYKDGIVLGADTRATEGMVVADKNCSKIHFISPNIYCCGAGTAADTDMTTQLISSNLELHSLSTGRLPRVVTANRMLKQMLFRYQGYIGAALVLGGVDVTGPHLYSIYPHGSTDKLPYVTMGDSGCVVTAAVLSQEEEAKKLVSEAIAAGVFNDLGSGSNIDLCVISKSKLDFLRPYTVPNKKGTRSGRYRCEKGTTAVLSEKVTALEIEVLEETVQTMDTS

[3] = biological target: T2, chymotrypsin-like site of 26S proteasomes (Oryctolagus cuniculus, UniProt G1T4Q9); assay: Inhibition of purified 26S proteasomes, substrate Suc-LLVY-amc; type: biochemical, rabbit; details: >>30 no inhibition at 30 μM, >30 inhibition between 10 and 50% at 30 μM, read-out: IC50 for sites in 26S proteasomes: Chym-L
T2 sequence (G1T4Q9 1-263): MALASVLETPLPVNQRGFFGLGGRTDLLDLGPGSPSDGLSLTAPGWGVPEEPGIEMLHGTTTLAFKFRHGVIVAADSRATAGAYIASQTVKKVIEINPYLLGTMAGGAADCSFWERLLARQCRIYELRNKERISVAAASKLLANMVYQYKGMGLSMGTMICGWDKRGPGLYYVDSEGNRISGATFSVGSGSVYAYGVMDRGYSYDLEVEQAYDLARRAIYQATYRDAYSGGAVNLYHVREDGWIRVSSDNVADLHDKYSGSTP
Method: as §1

[4] = tested on: trypsin-like site of 26S proteasomes; assay: Inhibition of purified 26S proteasomes, substrate Ac-RLR-amc; type: biochemical, rabbit; details: for IC50 (Chym-L)/IC50 (Tr-L): rabbit 26S proteasomes
Cathepsin B, H, L, S = assay: Cathepsin activity with pan-cathepsin substrate Z-FR-amc; type: cell-based; details: NCI-H929 cells, 6 hour treatment
Method: Cathepsin B, H, L, S activity was measured with pan-cathepsin substrate Z-FR-amc (Kirschke & Wiederanders (1994) Methods Enzymol. 244:500-11) in extracts of cytosol-less cells at pH 6.0 (Screen, et al. (2010) supra). Cathepsin D activity was measured in cytosol-less extracts using SENSOLYTE 520 Cathepsin D Fluorometric Assay Kit (AnaSpec). Combined cathepsin D and E activity was measured using the same kit, in which cathepsin D substrate provided with the kit was replaced with 7-Methoxycoumarin-[…](Dnp)-X′-NH2 (SEQ ID NO:10; where “X′” stand for D-Arg) internally quenched fluorogenic substrate of cathepsin D and E. In this case, pH 3.0 assay buffer used for cell extraction. All activity observed using both procedures was inhibited by more than 98% by specific inhibitor of aspartic proteases pepstatin A.

[5] = tested on: trypsin-like sites (β2) of proteasome in MM cells; assay: PROTEASOMEGLO assay of proteasome inhibition in MM cells; type: cell-based
Method: Proteasome inhibition in MM cells was measured with luminogenic substrates using PROTEASOMEGLO assay (Promega). […] An aliquot of culture was pelleted and medium was removed and replaced with PBS. The resulting cell suspension was mixed with luminogenic substrates in the manufacturer-provided lysis/assay buffer. After 3 minutes mixing on an orbital shaker, the plate was incubated in the dark for additional 17 minutes, followed by the measurements of the luminescence, performed in triplicate for each substrate/data point. Data were analyzed as for purified proteasomes. […] Cells (1×10^6 per well of a 6-well plate) were incubated with the inhibitors for 4 hours at 37° C. and this was followed by a 2 hour incubation with 5 μM BODIPY-TMR-epoxomicin. Subsequently, the medium was removed and the cells were washed with PBS and harvested. […] The supernatant was collected and the protein concentration was determined by the Bradford assay, and used to normalize gel loading. The samples were analysed by SDS-PAGE and fluorescent densitometry as described for competition experiment in cell lysates. IC50 values were calculated from three independent experiments using […] PRISM software.

β5 proteasome subunit = biological target: T3, β5 proteasome subunit (Homo sapiens, UniProt P20618+P28074); assay: Competition assay in HEK-293T cell lysate with MV151; type: biochemical; details: HEK293 extracts
T3 construct: Whole cell lysates of HEK-293T or EL-4 cells were made by sonication; endogenous in cells; host or cells: HEK-293T
Method: Whole cell lysates of HEK-293T or EL-4 cells were made by sonication in 3 volumes of lysis buffer containing 50 mM Tris pH 7.5, 1 mM DTT, 5 mM MgCl2, 250 mM sucrose, 2 mM ATP, 0.025% digitonin. Protein concentration was determined by the Bradford assay. Cell lysates (13.5 μg total protein for HEK lysates and 9 μg total protein for EL-4 lysates) were exposed to the inhibitors for 1 hour at 37° C. prior to incubation with MV151 (0.5 μM) or BODIPY-TMR-epoxomicin (0.5 μM) for an additional 1 hour at 37° C. Reaction mixtures were boiled with Laemmli's buffer containing (3-mercaptoethanol for 5 minutes before being resolved by 12.5% SDS-PAGE. In-gel detection of residual proteasome activity was performed in the wet gel slabs directly on the TYPHOON Variable Mode Imager (Amersham Biosciences) using the Cy3/Tamra settings (λex 532 nm, λem 560 nm) to detect MV151, BODIPY-TMR-epoxomicin and Cy2/Fam settings (λex 488 nm, λem 520 nm) to detect compounds 39 and 59.
The inhibition potential of the inhibitors for each of the catalytically active subunits was assessed in competition assays employing extracts of human embryonic kidney cells (HEK-293T) and mouse lymphoma cells (EL-4) in combination with the fluorescent broad spectrum proteasome probe MV151 (Verdoes, et al. (2006) Chem. Biol. 13:1217-1226). Competitive inhibition of a proteasome active site is reflected by the disappearance of the corresponding band on a gel.

RPMI-8226 cells = assay: ALAMAR BLUE cell viability assay; type: cell-based; details: E-64d 10 μM
Method: RPMI-8226 and NCI-H929 cells were cultured in RPMI-1640 supplemented with 10% fetal bovine serum, penicillin, streptomycin, and plasmocin in 5% CO2 humidified incubator. HEK-293T cells were cultured in DMEM containing 10% fetal calf serum, 10 units/mL penicillin, and 10 μg/mL streptomycin in a 7% CO2 humidified incubator. Viability of multiple myeloma cells was measured with ALAMAR BLUE mitochondrial dye conversion assay. Viability of peripheral blood mononuclear cells (PBMNCs) was measured using CELL TITER-GLO luminescent cell viability assay (Promega), which is based on quantification of ATP present in the cells. Caspase-3/7 activity was measured using APO-ONE 3/7 homogeneous assay (Promega).

CC(C)C[C@H](NC(=O)[C@H](Cc1ccccc1)N=[N+]=[N-])C(=O)N[C@@H](CC(C)C)C(=O)N[C@@H](Cc1ccc(CN)cc1)C(=O)[C@@]1(C)CO1 [Compound 4b, N3Phe-Leu-Leu-Phe(4-CH2NH2)EK]
pIC50 [1]: 4.96 | pIC50 [2]: 6.60

CC(C)C[C@H](NC(=O)[C@H](Cc1ccccc1)N=[N+]=[N-])C(=O)N[C@@H](CC(C)C)C(=O)N[C@H](/C=C/S(C)(=O)=O)Cc1ccc(N)cc1 [Compound 45a, N3-Phe-Leu-Leu-Phe(4-NH2)-VS]
pIC50 [3]: 7.40 | pIC50 [1]: 4.64 | pIC50 [2]: 6.96

CC(C)C[C@H](NC(=O)[C@H](Cc1ccccc1)N=[N+]=[N-])C(=O)N[C@@H](CC(C)C)C(=O)N[C@@H](Cc1ccc(N)cc1)C(=O)[C@@]1(C)CO1 [Compound 45b, N3-Phe-Leu-Leu-Phe(4-NH2)-EK]
pIC50 [3]: 8.00 | pIC50 [1]: < 4.52

CC(C)C[C@H](NC(=O)[C@H](Cc1ccccc1)N=[N+]=[N-])C(=O)N[C@@H](CC(C)C)C(=O)N[C@H](/C=C/S(C)(=O)=O)Cc1ccncc1 [Compound 46, N3-Phe-Leu-Leu-Ala(4-pyridine)-VS]
pIC50 [3]: > 7.00 | pIC50 [1]: < 4.52

CC(C)C[C@H](NC(=O)[C@H](Cc1ccccc1)N=[N+]=[N-])C(=O)N[C@@H](CC(C)C)C(=O)N[C@H](/C=C/S(C)(=O)=O)CCCCN [Compound 47, N3-Phe-Leu-Leu-Lys-VS]
pIC50 [1]: < 4.52

Cc1c(O)cccc1C(=O)N[C@H](C(=O)N[C@@H](CO)C(=O)N[C@H](/C=C/S(C)(=O)=O)Cc1ccc(N)cc1)C(C)C [Compound 49, HMB-Val-Ser-Phe(4-NH2)-VS]
pIC50 [3]: 7.40 | pIC50 [1]: 4.64 | IC50 (Chym-L)/IC50 (Tr-L) [4]: 0.36 | pIC50 [2]: 6.96

CC(C)C[C@H](NC(=O)[C@H](Cc1ccncc1)NC(=O)[C@H](Cc1ccccc1)N=[N+]=[N-])C(=O)N[C@H](/C=C/S(C)(=O)=O)Cc1ccc(CN)cc1 [Compound 50, N3-Phe-Ala (4-pyridine)-Leu-Phe (4-CH2NH2-TFA)-VS]
inhibition of cathepsins (Z-FR-amc) (Cathepsin B, H, L, S): partly reduced cathepsin activity

CC(C)C[C@H](NC(=O)[C@H](Cc1ccc(N)cc1)NC(=O)[C@H](Cc1ccccc1)N=[N+]=[N-])C(=O)N[C@H](/C=C/S(C)(=O)=O)Cc1ccc(CN)cc1 [Compound 51, N3-Phe-Phe (4-NH2. TFA)-Leu-Phe (4-CH2NH2.TFA)-VS]
pIC50 [3]: 5.47 | inhibition of cathepsins (Z-FR-amc) (Cathepsin B, H, L, S): behaved similarly to 4a | pIC50 [2]: 7.52 | difference in IC50 for trypsin-like activity between NCI-H929 and RPMI-8226 [5]: five-fold

CC(C)C[C@H](NC(=O)[C@H](Cc1ccc(CN)cc1)NC(=O)[C@H](Cc1ccccc1)N=[N+]=[N-])C(=O)N[C@H](/C=C/S(C)(=O)=O)Cc1ccc(N)cc1 [Compound 53, N3-Phe-Phe (4-CH2NH2)-Leu-Phe (4-NH2)—VS]
pIC50 [1]: < 4.52 | IC50 (Chym-L)/IC50 (Tr-L) [4]: 59

CC(C)C[C@H](NC(=O)[C@H](Cc1ccc(CN)cc1)NC(=O)[C@H](Cc1ccccc1)N=[N+]=[N-])C(=O)N[C@H](/C=C/S(C)(=O)=O)Cc1ccncc1 [Compound 54, N3-Phe-Phe (4-CH2NH2)-Leu-Ala (4 pyridine)-VS]
pIC50 [1]: < 4.52 | IC50 (Chym-L)/IC50 (Tr-L) [4]: 9.1

CC(C)C[C@@H](/C=C/S(C)(=O)=O)NC(=O)[C@H](CC(C)C)NC(=O)[C@H](Cc1ccc(CN)cc1)NC(=O)[C@H](Cc1ccccc1)N=[N+]=[N-] [Compound 55, N3-Phe-Phe(4-CH2NH2.TFA)-Leu-Leu-VS]
pIC50 [3]: 8.00 | IC50 (Chym-L)/IC50 (Tr-L) [4]: 0.057

CC(C)C[C@@H](/C=C/S(C)(=O)=O)NC(=O)[C@H](CC(C)C)NC(=O)[C@H](Cc1ccc(N)cc1)NC(=O)[C@H](Cc1ccccc1)N=[N+]=[N-] [Compound 56, N3-Phe-Phe(4-NH2-TFA)-Leu-Leu-VS]
pIC50 [3]: > 8.40 | pIC50 [1]: < 4.52 | IC50 (Chym-L)/IC50 (Tr-L) [4]: <0.00017 | pIC50 [2]: 4.62 | inhibition of chymotrypsin-like sites in extracts versus purified proteasomes (β5 proteasome subunit): less potently and selectively in extracts than in purified proteasomes

CC(C)C[C@@H](/C=C/S(C)(=O)=O)NC(=O)[C@H](CC(C)C)NC(=O)[C@H](Cc1ccncc1)NC(=O)[C@H](Cc1ccccc1)N=[N+]=[N-] [Compound 57, N3-Phe-Ala(4-pyridine)-Leu-Leu-VS]
pIC50 [1]: < 4.52 | IC50 (Chym-L)/IC50 (Tr-L) [4]: 0.00021 | pIC50 [2]: 4.62 | inhibition of chymotrypsin-like sites in extracts versus purified proteasomes (β5 proteasome subunit): less potently and selectively in extracts than in purified proteasomes

CC(C)C[C@H](NC(=O)[C@H](Cc1ccccc1)NC(=O)[C@H](Cc1ccccc1)N=[N+]=[N-])C(=O)N[C@H](/C=C/S(C)(=O)=O)Cc1ccccc1 [Compound 58, N3-Phe-Phe-Leu-Phe-VS]
pIC50 [1]: < 4.52 | pIC50 [2]: < 4.52

CCOC(=O)[C@H]1O[C@@H]1C(=O)N[C@@H](CC(C)C)C(=O)NCCC(C)C [Compound E-64d]
sensitization to carfilzomib (RPMI-8226 cells): did not sensitize cells to carfilzomib

BODIPY-triazole-Phe-Phe(4-CH2NH2.TFA)-Leu-Phe(4-CH2NH2.TFA)-VS [Compound 59]
specificity after attachment of BODIPY-FL dye [4]: reduced the specificity
